Laboratory results from patent publication US20260055126A1, “SMALL MOLECULE COMPOUNDS WITH PHOSPHORYLATED ARYL STRUCTURES AND USE THEREOF” (HANGZHOU PHECDAMED CO., LTD., priority 2022, published 2026).
“And” between values parts separate entries of the source, which are not always exact repeats. Equal values may be shown once.

How the values were obtained:
[1] = Mouse plasma pharmacokinetic test; type: in vivo, CD-1 mice
Description: In this example, different compounds are used to perform a mouse pharmacokinetic experiment, and the specific steps are as follows: Animal information: CD-1 mice, male, about 20 g, purchase from Beijing Weitonglihua Experimental Animal Technology Co., Ltd.
Animal dietary status: Animals are not fasted before administration and allowed to drink water freely.
Compound preparation method: for intragastric administration (IG)(G1 group), preparing with 0.5% CMC-Na, and for intravenous injection(IV) (G2 group), preparing 5% DMSO+30% PEG400+65% water. […]
Sampling time points of G1 group: 8 points in total, namely 10 min, 30 min, 1 h, 2 h, 4 h, 6 h, 8 h and 24 h after administration, among them, animals G1M01-G1M03 are sampled at 3 time points, namely 10 min, 1 h and 6 h; animals G1M04-G1M06 are sampled at 3 time points, namely 30 min, 2 h and 8 h; animals G1M07-G1M09 are sampled at 2 time points, namely 4 h and 24 h.
Sampling time points of G2 group: 9 points in total, namely 5 min, 10 min, 30 min, 1 h, 2 h, 4 h, 6 h, 8 h, 24 h after administration. It is recommended that animals G2M01-G2M03 are sampled at 3 time points, namely 5 min, 1 h, and 6 h; animals G2M04-G2M06 are sampled at 3 time points, namely 10 min, 2 h, and 8 h; animals G2M07-G2M09 are sampled at 3 time points, namely 30 min, 4 h, and 24 h.
Sample collection: On the day of the experiment, collecting approximately 0.1 mL of whole blood samples at each preset time point and placing in EDTA-K2 anticoagulant tubes.
Sample processing: Within 30 minutes after whole blood sample collection, centrifuging at 4° C., 12,000 rpm for 5 minutes to separate plasma, collecting the upper plasma sample into a sample tube, and freezing the plasma sample in a −10˜−30° C. refrigerator within 30 minutes and transferring to a −60˜−90° C. refrigerator within 24 hours.
Sample testing and data processing: LC/MS/MS testing, WinNonlin for fitting and pharmacokinetic parameter calculation.

[2] = In vitro liver microsome stability, human; type: in vitro ADME; conditions: human liver microsomes
Method: Testosterone is selected as the positive reference compound. The specific method is as follows:
Preparing 0.1MK3 PO4 (pH 7.4) buffer and 3×NADPH stock solution (6 mM, 5 mg/mL), and preheating in a 37° C. water bath; preparing spiking solution of tested compound and control compound: adding 5 μL compound stock solution (10 mM) to 95 μL acetonitrile; preparing 1.5 μM spiking solution in microsomes (0.75 mg/mL): add 1.5 μL spiking solution and 18.75 μL liver microsome solution (20 mg/mL) to 479.75 μL K3PO4 buffer; taking 30 μL spiking solution in microsomes and adding it to the multiwell plate, and incubating at 37° C. for 5 min; adding 15 μL of NADPH stock solution to each well, starting to react, and timing; adding 150 μL of acetonitrile solution containing IS at 0 min, 5 min, 15 min, 30 min, 45 min and 60 min respectively to terminate the reaction; after 10 min of oscillation, centrifuging the reaction at 6000 rpm for 15 min; taking 80 μL of supernatant from each well for LC/MS detection and calculating Ti/2.
Liver microsomes of mice, rats, dogs, and human used in the experiment are purchased from Xenotech.

Caco-2 cells = assay: Permeability test on Caco2 cells; type: in vitro ADME; conditions: for Papp average value: n = 2; for Papp / Receiving chamber concentration Area ratio/OD: single replicate
Method: After resuscitation, the Caco-2 cells are transferred to a conventional culture dish and cultured in a high-glucose DMEM medium (containing 10% FBS) at 37° C. and 5% CO2 in an incubator. When the cells cover 80% to 95% of the bottom of the dish, they are digested with trypsin containing 0.25% EDTA to disperse them into a single cell suspension, and the cell concentration is determined using a cell counter, after that, the concentration of the cell suspension is adjusted to 2 to 2.5×10^5/mL with fresh culture medium and inoculated into a Transwell polycarbonate membrane 12-well plate, the fresh culture medium is replaced every two days in the first two weeks and once a day in the last week, the culture is continued for 19 to 21 days to obtain a fully differentiated single cell layer.

CP(C)(=O)c1ccc(NCc2ccc(C(F)(F)F)cc2)c(-c2nccc(OC3COC3)n2)c1 [Compound 17]
F % ([1]; CD-1 mice, IG 10 mg/kg vs IV 1 mg/kg): 51.9%
AUC0-t ([1]; CD-1 mice, single IG 10 mg/kg): 4662 ng·h/mL
AUC0-∞ ([1]; CD-1 mice, single IG 10 mg/kg): 5688 ng·h/mL
Cmax ([1]; CD-1 mice, single IG 10 mg/kg): 1477 ng/mL
MRT0-t ([1]; CD-1 mice, single IG 10 mg/kg): 2.84 h
MRT0-∞ ([1]; CD-1 mice, single IG 10 mg/kg): 4.66 h
Tmax ([1]; CD-1 mice, single IG 10 mg/kg): 0.5 h
t1/2 ([1]; CD-1 mice, single IG 10 mg/kg): 3.46 h
AUC0-t ([1]; CD-1 mice, single IV 1 mg/kg): 899 ng·h/mL
AUC0-∞ ([1]; CD-1 mice, single IV 1 mg/kg): 924 ng·h/mL
CL ([1]; CD-1 mice, single IV 1 mg/kg): 18.03 mL/min/kg
Cmax ([1]; CD-1 mice, single IV 1 mg/kg): 598 ng/mL
MRT0-t ([1]; CD-1 mice, single IV 1 mg/kg): 1.55 h
MRT0-∞ ([1]; CD-1 mice, single IV 1 mg/kg): 1.80 h
Vss ([1]; CD-1 mice, single IV 1 mg/kg): 1.947 L/kg
t1/2 ([1]; CD-1 mice, single IV 1 mg/kg): 1.94 h
pharmacokinetic properties in mice ([1]; mice): good pharmacokinetic properties
human half-life [2]: 1.78 h
Papp average value (Caco-2 cells; AP→BL): 8.96 10^−6 cm/s
Papp (Caco-2 cells; AP→BL): 8.81 10^−6 cm/s and 9.12 10^−6 cm/s
Receiving chamber concentration Area ratio/OD (Caco-2 cells; AP→BL): 0.114 and 0.118
Papp average value (Caco-2 cells; BL→AP): 18.1 10^−6 cm/s
Papp (Caco-2 cells; BL→AP): 18.0 10^−6 cm/s and 18.2 10^−6 cm/s
Receiving chamber concentration Area ratio/OD (Caco-2 cells; BL→AP): 0.699 and 0.708
Penetration Type (Caco-2 cells; Caco2 cell model): High
intestinal permeability (Caco-2 cells; Caco2 cell model): high intestinal hypertonicity
